Measured values reported in PubChem BioAssay AID256 (DTP/NCI, 2004).
Where “and” joins values, the source holds several entries; their conditions need not be identical. Equal values may be shown once. Toxic doses and inconclusive results are not listed. The calls were made as follows: active = survival T/C of 150% or more; inactive = T/C below 125% in these data.

System: CD2F1 mice, L1210 leukemia ip, survival T/C
Experiment: NCI In Vivo Anticancer Drug Screen. Data for tumor model L1210 Leukemia (intraperitoneal) in CD2F1 (CDF1) mice
Settings: higher = longer survival
In short: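 In this screen, transplantable tumors were grown in mice given either the compound or its vehicle. Results were expressed as the treated measurement relative to the control measurement.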

[1] = endpoint: mean survival time, dose: 100.0 mg/kg/injection, schedule: Q04DX003 (ip), vehicle: saline with Tween-80
[2] = endpoint: mean survival time, dose: 200.0 mg/kg/injection, schedule: Q04DX003 (ip), vehicle: saline with Tween-80
[3] = endpoint: mean survival time, dose: 400.0 mg/kg/injection, schedule: Q04DX003 (ip), vehicle: saline with Tween-80
[4] = endpoint: mean survival time, dose: 100.0 mg/kg/injection, schedule: Q01DX009 (ip), vehicle: saline with Tween-80
[5] = endpoint: mean survival time, dose: 25.0 mg/kg/injection, schedule: Q04DX003 (ip), vehicle: saline
[6] = endpoint: mean survival time, dose: 50.0 mg/kg/injection, schedule: Q04DX003 (ip), vehicle: saline
[7] = endpoint: mean survival time, dose: 100.0 mg/kg/injection, schedule: Q04DX003 (ip), vehicle: saline
[8] = endpoint: mean survival time, dose: 25.0 mg/kg/injection, schedule: Q01DX009 (ip), vehicle: saline with Tween-80
[9] = endpoint: mean survival time, dose: 50.0 mg/kg/injection, schedule: Q01DX009 (ip), vehicle: saline with Tween-80

Measured: T/C

NC(=O)c1[nH]nc(C2OC(CO)C(O)C2O)c1O (stereo not given)
inactive: endpoint: mean survival time, dose: 0.25 mg/kg/injection, schedule: Q04DX003 (ip), vehicle: saline 105 % of control | endpoint: mean survival time, dose: 0.5 mg/kg/injection, schedule: Q04DX003 (ip), vehicle: saline 97 % of control | endpoint: mean survival time, dose: 1.0 mg/kg/injection, schedule: Q04DX003 (ip), vehicle: saline 96 % of control | endpoint: mean survival time, dose: 2.0 mg/kg/injection, schedule: Q04DX003 (ip), vehicle: saline 97 % of control | endpoint: median survival time, dose: 0.25 mg/kg/injection, schedule: Q01DX009 (ip), vehicle: saline 98 % of control | endpoint: median survival time, dose: 0.5 mg/kg/injection, schedule: Q01DX009 (ip), vehicle: saline 111 % of control | endpoint: median survival time, dose: 1.0 mg/kg/injection, schedule: Q01DX009 (ip), vehicle: saline 121 % of control | endpoint: median survival time, dose: 1.0 mg/kg/injection, schedule: Q04DX003 (ip), vehicle: saline 102 % of control | endpoint: median survival time, dose: 1.88 mg/kg/injection, schedule: Q04DX003 (ip), vehicle: saline 117 % of control | endpoint: median survival time, dose: 2.0 mg/kg/injection, schedule: Q01DX009 (ip), vehicle: saline 120 % of control | endpoint: median survival time, dose: 3.75 mg/kg/injection, schedule: Q04DX003 (ip), vehicle: saline 110 % of control | endpoint: median survival time, dose: 4.0 mg/kg/injection, schedule: Q01DX009 (ip), vehicle: saline 110 % of control | endpoint: median survival time, dose: 7.5 mg/kg/injection, schedule: Q04DX003 (ip), vehicle: saline 116 % of control | endpoint: median survival time, dose: 8.0 mg/kg/injection, schedule: Q01DX009 (ip), vehicle: saline 88 % of control | endpoint: median survival time, dose: 8.0 mg/kg/injection, schedule: Q04DX003 (ip), vehicle: saline 117 % of control and 120 % of control | endpoint: median survival time, dose: 15.0 mg/kg/injection, schedule: Q04DX003 (ip), vehicle: saline 118 % of control | endpoint: median survival time, dose: 16.0 mg/kg/injection, schedule: Q01DX009 (ip), vehicle: saline 101 % of control | endpoint: median survival time, dose: 16.0 mg/kg/injection, schedule: Q04DX003 (ip), vehicle: saline 111 % of control | endpoint: median survival time, dose: 30.0 mg/kg/injection, schedule: Q04DX003 (ip), vehicle: saline 97 % of control | endpoint: median survival time, dose: 32.0 mg/kg/injection, schedule: Q04DX003 (ip), vehicle: saline 118 % of control

CC(C)(CO)NC(=O)CC1CCCCC1
inactive: endpoint: mean survival time, dose: 100.0 mg/kg/injection, schedule: Q01DX001 (ip), vehicle: saline with Tween-80 103 % of control | endpoint: mean survival time, dose: 200.0 mg/kg/injection, schedule: Q01DX001 (ip), vehicle: saline with Tween-80 103 % of control | endpoint: mean survival time, dose: 400.0 mg/kg/injection, schedule: Q01DX001 (ip), vehicle: saline with Tween-80 100 % of control

COc1ccccc1OC(=O)Nc1ccccc1F
inactive: [1] 101 % of control | [2] 97 % of control | [3] 101 % of control

CCCCCCCCCCCCCC[n+]1ccc(C#N)cc1
inactive: endpoint: mean survival time, dose: 7.5 mg/kg/injection, schedule: Q01DX001 (ip), vehicle: saline 97 % of control | endpoint: mean survival time, dose: 7.5 mg/kg/injection, schedule: Q01DX009 (ip), vehicle: saline 100 % of control | endpoint: mean survival time, dose: 15.0 mg/kg/injection, schedule: Q01DX001 (ip), vehicle: saline 92 % of control | endpoint: mean survival time, dose: 15.0 mg/kg/injection, schedule: Q01DX009 (ip), vehicle: saline 103 % of control | endpoint: mean survival time, dose: 30.0 mg/kg/injection, schedule: Q01DX001 (ip), vehicle: saline 100 % of control | endpoint: mean survival time, dose: 30.0 mg/kg/injection, schedule: Q01DX009 (ip), vehicle: saline 107 % of control

BrC=C=C1CCCCC1
inactive: [1] 95 % of control | [2] 93 % of control | [3] 97 % of control

O=C(/C=C(\Br)c1ccccc1)c1ccccc1
inactive: endpoint: mean survival time, dose: 100.0 mg/kg/injection, schedule: Q04DX002 (ip), vehicle: saline with Tween-80 91 % of control

CC(=O)OC1C=C2CCC3C(CCC4(C)C(OC(C)=O)CCC34)C2(C)CC1 (stereo not given)
inactive: endpoint: mean survival time, dose: 12.5 mg/kg/injection, schedule: Q04DX003 (ip), vehicle: Klucel (hydroxypropylcellulose) (HPC) 106 % of control | endpoint: mean survival time, dose: 25.0 mg/kg/injection, schedule: Q04DX003 (ip), vehicle: Klucel (hydroxypropylcellulose) (HPC) 103 % of control | endpoint: mean survival time, dose: 50.0 mg/kg/injection, schedule: Q04DX003 (ip), vehicle: Klucel (hydroxypropylcellulose) (HPC) 106 % of control

CCN(C(=O)NC)c1cc(C)ccc1OC
inactive: [4] 87 % of control | endpoint: mean survival time, dose: 200.0 mg/kg/injection, schedule: Q01DX009 (ip), vehicle: saline with Tween-80 87 % of control | endpoint: mean survival time, dose: 400.0 mg/kg/injection, schedule: Q01DX009 (ip), vehicle: saline with Tween-80 98 % of control

COc1ccc(NC(=O)c2ccccc2)c([N+](=O)[O-])c1
inactive: [1] 105 % of control | [2] 97 % of control | [3] 94 % of control

CC1=CCCC2C1(C)CCC(C)C2(C)Cc1cc(O)ccc1O (stereo not given)
inactive: endpoint: median survival time, dose: 6.25 mg/kg/injection, schedule: Q01DX005 (ip), vehicle: Klucel (hydroxypropylcellulose) (HPC) 107 % of control | endpoint: median survival time, dose: 12.5 mg/kg/injection, schedule: Q01DX005 (ip), vehicle: Klucel (hydroxypropylcellulose) (HPC) 103 % of control | endpoint: median survival time, dose: 25.0 mg/kg/injection, schedule: Q01DX005 (ip), vehicle: Klucel (hydroxypropylcellulose) (HPC) 98 % of control | endpoint: median survival time, dose: 50.0 mg/kg/injection, schedule: Q01DX005 (ip), vehicle: Klucel (hydroxypropylcellulose) (HPC) 102 % of control | endpoint: median survival time, dose: 100.0 mg/kg/injection, schedule: Q01DX005 (ip), vehicle: Klucel (hydroxypropylcellulose) (HPC) 97 % of control

c1cc[n+](Cc2nc3ccccc3[nH]2)cc1
inactive: endpoint: mean survival time, dose: 25.0 mg/kg/injection, schedule: Q01DX009 (ip), vehicle: saline 97 % of control and 100 % of control | [5] 103 % of control and 100 % of control | endpoint: mean survival time, dose: 50.0 mg/kg/injection, schedule: Q01DX009 (ip), vehicle: saline 100 % of control | [6] 100 % of control and 106 % of control | endpoint: mean survival time, dose: 100.0 mg/kg/injection, schedule: Q01DX009 (ip), vehicle: saline 101 % of control and 97 % of control | [7] 97 % of control and 103 % of control

Nc1nc(N)c2cc(CNc3ccc(C(=O)NC(C(=O)O)C(=O)O)cc3)ccc2n1
inactive: endpoint: mean survival time, dose: 0.8 mg/kg/injection, schedule: Q01DX009 (ip), vehicle: saline 102 % of control | endpoint: mean survival time, dose: 1.6 mg/kg/injection, schedule: Q01DX009 (ip), vehicle: saline 86 % of control

O=S(=O)(F)c1cccc(Cl)c1C[P+](c1ccccc1)(c1ccccc1)c1ccccc1
inactive: endpoint: mean survival time, dose: 12.5 mg/kg/injection, schedule: Q01DX001 (ip), vehicle: Klucel (hydroxypropylcellulose) (HPC) 103 % of control | endpoint: mean survival time, dose: 25.0 mg/kg/injection, schedule: Q01DX001 (ip), vehicle: Klucel (hydroxypropylcellulose) (HPC) 115 % of control

O=[N+]([O-])c1ccc(/C=N\N=C\c2ccc([N+](=O)[O-])cc2)cc1
inactive: endpoint: mean survival time, dose: 50.0 mg/kg/injection, schedule: Q01DX009 (ip), vehicle: Klucel (hydroxypropylcellulose) (HPC) 106 % of control | endpoint: mean survival time, dose: 100.0 mg/kg/injection, schedule: Q01DX009 (ip), vehicle: Klucel (hydroxypropylcellulose) (HPC) 106 % of control | endpoint: mean survival time, dose: 200.0 mg/kg/injection, schedule: Q01DX009 (ip), vehicle: Klucel (hydroxypropylcellulose) (HPC) 109 % of control

Cc1cc(C)c(NC(=O)CC#N)c(C)c1
inactive: [8] 88 % of control | [9] 86 % of control | [4] 93 % of control

O=S(=O)(OCCCCCOS(=O)(=O)c1cccnc1)c1cccnc1
inactive: endpoint: mean survival time, dose: 10.0 mg/kg/injection, schedule: Q04DX002 (ip), vehicle: saline with Tween-80 95 % of control | endpoint: mean survival time, dose: 40.0 mg/kg/injection, schedule: Q04DX002 (ip), vehicle: saline with Tween-80 98 % of control

CCN(CC)CC#CCCCCN(CC)CC
inactive: [8] 101 % of control | [5] 96 % of control | [9] 95 % of control | [6] 94 % of control | [4] 93 % of control | [1] 94 % of control | [7] 94 % of control
